Our source for the IC50 values is patent publication US9725460B2, “Oridonin analogs, compositions, and methods related thereto” (THE BOARD OF REGENTS OF THE UNIVERSITY OF TEXAS SYSTEM, priority 2013, dated 2017).

Details in all cases: Homo sapiens
Experiment [1] concerns MCF-7. The experiment can be described thus: MTT cancer cell proliferation assay, MCF-7. The class given is cell-based, human. The procedure: (§1) In Vitro Determination of Effects of Synthesized Diterpenoids on Cancer Cell Proliferation. Breast cancer cell lines MCF-7, MDA-MB-231, […] and MCF/ADR were seeded in 96-well plates at a density of 1×10^4 cells/well and treated with DMSO and 0.01, 0.1, 1, 5, 10, and 100 μM of individual compound for 48 h, and then 20 μL of 3-(4,5-dimethylthiazol-2-yl)-2,5-diphenyltetrazolium bromide (MTT) (5 mg/mL in PBS) was added to each well and further incubated for another 4 h. Then MTT solution was removed, and 150 μL of DMSO was added to each well. Absorbance of all wells was determined by measuring OD at 550 nm after a 10 min incubation on a 96-well GlowMaxate absorbance reader (Promega, Madison, Wis.). Each individual compound was tested in quadruplicate wells for each concentration.
(§2) The growth inhibitory effects of the newly generated pyran-fused diterpenoids were evaluated in four breast cancer cell lines MCF-7 (ER-positive), MDAMB-231 (ER-negative and triple-negative), MDA-MB-468 (ER-negative and triple-negative) as well as MCF-7/ADR (adriamycin-resistant) using MTT assays as described in the Experimental Section.

For experiment [2], the system named is MDA-MB-231. The experiment can be described thus: MTT cancer cell proliferation assay, MDA-MB-231. It counts as cell-based, human. The method, then:
as §1, §2

For experiment [3], the system named is AsPC1. Briefly: Cancer cell proliferation assay, AsPC1. The class given is cell-based. The method, then: (§3) In Vitro Determination of Effects of Synthesized Diterpenoids on Cancer Cell Proliferation. […] Then MTT solution was removed, and 150 μL of DMSO was added to each well. Absorbance of all wells was determined by measuring OD at 550 nm after a 10 min incubation on a 96-well GlowMaxate absorbance reader (Promega, Madison, Wis.). Each individual compound was tested in quadruplicate wells for each concentration.

Experiment [4] relates to Panc-1. Briefly: Cancer cell proliferation assay, Panc-1. The class given is cell-based. The method, then: as §3
Setting [5] is: MCF7, read-out: IC50 (μM) MCF-7.
[6] abbreviates: MDA-MB-231, read-out: IC50 (μM) MDA-MB-231.
Where [7] appears, read: ASPC1, read-out: IC50 (μM) AsPC1.
Setting [8] is: PANC-1, read-out: IC50 (μM) Panc-1.
The mark [9] stands for this setting: MCF7, Table 2a, A-ring modified analogues, read-out: IC50 (μM) MCF-7.
The mark [10] stands for this setting: MDA-MB-231, Table 2a, A-ring modified analogues, read-out: IC50 (μM) MDA-MB-231.
[11] abbreviates: ASPC1, Table 2a, A-ring modified analogues, read-out: IC50 (μM) AsPC1.
Setting [12] is: PANC-1, Table 2a, A-ring modified analogues, read-out: IC50 (μM) Panc-1.
Where [13] appears, read: MCF7, Table 1b, triazole substituted analogues, mean of three experiments, read-out: IC50 (μM) MCF-7.
The mark [14] stands for this setting: MDA-MB-231, Table 1b, triazole substituted analogues, mean of three experiments, read-out: IC50 (μM) MDA-MB-231.

Read-outs that look alike come from different tables or passages of the source.

`C=C1C(=O)[C@]23[C@H](O)[C@H]1CC[C@H]2[C@@]12COC3(O)[C@@H](O)[C@@H]1C(C)(C)CC1=C2O[C@]2(CC1)CC(C)(C)[C@H]1[C@H](O)[C@]3(O)OC[C@]1(C2=O)[C@@H]1CC[C@H]2C(=C)C(=O)[C@]13[C@@H]2O` [CYD-5-40-2, (2R,4aR,5S,6S,6aR,6a′R,7′S,8′S,8a′R,9S,11aS,11bS,11′S,13a′S,13b′S,14R,16′R)-5,6,7′,8′,14,16′-hexahydroxy-4,4,6′,6′-tetramethyl-8,10′-dimethylene-4,4a,5,6,6′,6a′,7′,8′,9,10,11,11a,11′,12′,13′,13a′-hexadecahydro-3′H-spiro[6,11b-(epoxymethano)-6a,9-methanocyclohepta[a]naphthalene-2,2′-8,13b-(epoxymethano)-8a,11-methanocyclohepta[3,4]benzo[1,2-h]chromene]-1,7,9′(3H,4′H,5′H,8H,10′H)-trione]: the 50% inhibitory concentration (IC50) in experiment [1] (setting [5]) was 4.82 µM; in experiment [2] (setting [6]), 9.64 µM; in experiment [3] (setting [7]), 10.2 µM; in experiment [4] (setting [8]), 8.07 µM.
For `C=C1C(=O)[C@]23[C@H](O)[C@H]1CC[C@H]2[C@@]12COC3(O)[C@@H](O)[C@@H]1C(C)(C)CC13CC[C@]4(CC(C)(C)[C@H]5[C@H](O)[C@]6(O)OC[C@]5(C4=O)[C@@H]4CC[C@H]5C(=C)C(=O)[C@]46[C@@H]5O)OC12O3` (stereo partly drawn) [CYD-6-39, (2R,4aR,4a′R,5′S,6aR,6′S,6a′R,7S,8S,8aR,9′S,11S,11a′S,11b′S,13aS,13bS,13cR,14′R,17R)-5′,6′,7,8,14′,17-hexahydroxy-4′,4′,6,6-tetramethyl-8′,10-dimethylenehexadecahydro-3H-spiro[4a,13c-epoxy-8,13b-(epoxymethano)-8a,11-methanocyclohepta[3,4]benzo[1,2-h]chromene-2,2′-6,11b-(epoxymethano)-6a,9-methanocyclohepta[a]naphthalene]-1′,7′,9(3′H,4H,5H,8′H,10H)-trione], the IC50 is above 10 µM in experiment [1] (setting [9]), above 10 µM in experiment [2] (setting [10]), 104 µM in experiment [3] (setting [11]) and above 10 µM in experiment [4] (setting [12]).
For the compound `C=C1C(=O)[C@@]23[C@@H]4OC(C)(C)OC25OC[C@]2(C=CCC(C)(C)[C@H]2[C@@H]5O)[C@@H]3CC[C@@H]14` [CYD-6-75, (3S,3aR,3a^1R,6aR,7S,7aR,11aR,11bS)-7-hydroxy-5,5,8,8-tetramethyl-15-methylene-2,3,3a,7,7a,8,9,11b-octahydro-1H-6a,11a-(epoxymethano)-3,3a^1-ethanophenanthro[1,10-de][1,3]dioxin-14-one], the IC50 in experiment [1] (setting [9]) came to 0.95 µM; in experiment [2] (setting [10]), 3.95 µM; in experiment [3] (setting [11]), 6.78 µM; in experiment [4] (setting [12]), 7.25 µM.
As for `C=C1C(=O)[C@@]23[C@@H]4OC(C)(C)OC25OC[C@]2(C(=O)/C(=C\N(C)C)CC(C)(C)[C@H]2[C@@H]5O)[C@@H]3CC[C@@H]14` [CYD-6-77, (3S,3aR,3a^1R,6aR,7S,7aR,11aS,11bS,Z)-10-((dimethylamino)methylene)-7-hydroxy-5,5,8,8-tetramethyl-15-methyleneoctahydro-1H-6a,11a-(epoxymethano)-3,3a^1-ethanophenanthro[1,10-de][1,3]dioxine-11,14(2H)-dione], the IC50 in experiment [1] (setting [5]) was 9.07 µM; in experiment [2] (setting [6]), 165 µM; in experiment [3] (setting [7]), 11.8 µM; in experiment [4] (setting [8]), above 10 µM.
For `C=C1C(=O)[C@@]23[C@@H]4OC(C)(C)OC25OC[C@]2(C=C[C@H](O)C(C)(C)[C@H]2[C@@H]5O)[C@@H]3CC[C@@H]14` [CYD-6-81, (3S,3aR,3a^1R,6aR,7S,7aS,9S,11aR,11bS)-7,9-dihydroxy-5,5,8,8-tetramethyl-15-methylene-2,3,3a,7,7a,8,9,11b-octahydro-1H-6a,11a-(epoxymethano)-3,3a^1-ethanophenanthro[1,10-de][1,3]dioxin-14-one], the IC50 in experiment [1] (setting [9]) was 2.56 µM; in experiment [2] (setting [10]) it was 10.5 µM; in experiment [3] (setting [11]) it was above 10 µM; in experiment [4] (setting [12]), 5.24 µM.
As to `C=C1C(=O)[C@]23[C@H](O)[C@H]1CC[C@H]2[C@]12C=CCC(C)(C)[C@H]1[C@H](O)[C@@]3(O)OC2` [CYD-6-82, (4aR,5S,6S,6aR,9S,11aS,11bR,14R)-5,6,14-trihydroxy-4,4-dimethyl-8-methylene-4,4a,5,6,9,10,11,11a-octahydro-3H-6,11b-(epoxymethano)-6a,9-methanocyclohepta[a]naphthalen-7(8H)-one], the IC50 in experiment [1] (setting [5]) is 0.79 µM; in experiment [2] (setting [6]), 3.9 µM; in experiment [3] (setting [7]) it was 1.09 µM; in experiment [4] (setting [8]) it was 1.19 µM.
For `C=C1C(=O)[C@]23[C@H](O)[C@H]1CC[C@H]2[C@]12C=C[C@H](O)C(C)(C)[C@H]1[C@H](O)[C@@]3(O)OC2` [CYD-6-90, (3S,4aS,5S,6S,6aR,9S,11aS,11bR,14R)-3,5,6,14-tetrahydroxy-4,4-dimethyl-8-methylene-4,4a,5,6,9,10,11,11a-octahydro-3H-6,11b-(epoxymethano)-6a,9-methanocyclohepta[a]naphthalen-7(8H)-one], the IC50 in experiment [1] (setting [9]) was 1.21 µM; in experiment [2] (setting [10]), 26.1 µM; in experiment [3] (setting [11]), above 10 µM; in experiment [4] (setting [12]), above 10 µM.
As to `C=C1C(=O)[C@]23[C@H](O)[C@H]1CC[C@H]2[C@]12C=CC(=O)C(C)(C)[C@H]1[C@H](O)[C@@]3(O)OC2` [CYD-6-93, (4aS,5S,6S,6aR,9S,11aS,11bR,14R)-5,6,14-trihydroxy-4,4-dimethyl-8-methylene-4,4a,5,6,9,10,11,11a-octahydro-3H-6,11b-(epoxymethano)-6a,9-methanocyclohepta[a]naphthalene-3,7(8H)-dione], the IC50 in experiment [1] (MCF7, read-out: Antiproliferative effect MCF-7 (IC50)) came to 3.48 ± 2.16 µM; in experiment [1] (setting [5]), 0.71 µM; in experiment [2] (MDA-MB-231, read-out: Antiproliferative effect MDA-MB-231 (IC50)), 9.39 ± 0.48 µM; in experiment [2] (setting [6]), 10.3 µM; in experiment [3] (setting [7]), 10.2 µM; in experiment [4] (setting [8]), 9.67 µM.
As to `C=C1C(=O)[C@@]23C(=O)[C@@H](O)[C@@H]4C(C)(C)[C@@H]5OC[C@]4(C(=O)/C5=C/OC)[C@@H]2CC[C@@H]1[C@H]3O` [CYD-7-13], the IC50 in experiment [1] (MCF7, Table 1c, dienone analogues, mean ± SE of three experiments, read-out: Antiproliferative effect MCF-7 (IC50)) is 10.2 ± 3.07 µM; in experiment [2] (MDA-MB-231, Table 1c, dienone analogues, mean ± SE of three experiments, read-out: Antiproliferative effect MDA-MB-231 (IC50)), above 30 µM.
Take `C=C1C(=O)[C@]23[C@H](O)[C@H]1CC[C@H]2[C@]12C=C[C@@H](n4cc(-c5ccccc5)nn4)C(C)(C)[C@H]1[C@H](O)C3(O)OC2` [CYD-7-82]: the IC50 in experiment [1] (setting [13]) was 2.3 µM; in experiment [2] (setting [14]), 1.8 µM.
In the same order, the values of `C=C1C(=O)[C@@]23[C@@H]4OC(C)(C)OC25OC[C@]2([C@@H](n6cc(-c7ccccc7)nn6)C=CC(C)(C)[C@H]2[C@@H]5O)[C@@H]3CC[C@@H]14` [CYD-7-86] are 0.38 µM and 0.48 µM.
For `C=C1C(=O)[C@]23[C@H](O)[C@H]1CC[C@H]2[C@@]12COC3(O)[C@@H](O)[C@@H]1C(C)(C)C=C[C@@H]2n1cc(-c2ccccc2)nn1` [CYD-7-90], in that order: 2.1 µM and 1.8 µM.
In the same order, the values of `C=C1C(=O)[C@@]23[C@@H]4OC(C)(C)OC25OC[C@]2([C@H](O)[C@@H](n6cc(-c7ccc(C(C)(C)C)cc7)nn6)CC(C)(C)[C@H]2[C@@H]5O)[C@@H]3CC[C@@H]14` [CYD-8-3] are 2 µM and 1.1 µM.
For `C=C1C(=O)[C@]23[C@H](O)[C@H]1CC[C@H]2[C@@]12COC3(O)[C@@H](O)[C@@H]1C(C)(C)C[C@H](n1cc(-c3ccc(C(C)(C)C)cc3)nn1)[C@H]2O` [CYD-8-5], the IC50 in experiment [1] (setting [13]) came to 1.9 µM; in experiment [2] (setting [14]) it was 3.5 µM.

As usually defined, the IC50 is the concentration that gives 50% inhibition.
